{
  "source": "patent US20190328869A1",
  "about": "“IMMUNOTHERAPEUTIC PRODUCT AND MDSC MODULATOR COMBINATION THERAPY” (Transgene SA, priority 2016, published 2019)",
  "key": {"[1]": {"test_system": "HBsAg (AAV2/8-HBV)", "test": "Serum HBsAg level by ELISA in HBV-persistent mice", "assay_type": "in vivo, C57BL/6J mice", "settings": "monotherapy; sildenafil 5, 20 or 80 mg/kg/day D31-59; AdTG18201 D36, 43, 50; up to day 104", "protocol": "(§1) Graph A illustrates the median level of HBsAg determined in the serum of groups of 10 mice (groups a to h) treated with sildenafil at 5 mg/kg/day (group b), at 20 mg/kg/day (group c), or at 80 mg/kg/day (group d) alone, or with AdTG18201 (group e) alone or with a combination of AdTG18201 and sildenafil (at 5, 20, or 80 mg/kg/day, groups f, g and h, respectively). The control group a is untreated. The Y-axis indicates the median HBsAg level (ng/mL) for each group and the X-axis the time (number of days post-AAV2/8-HBV injection). Graph B illustrates the median level of HBV DNA determined in the serum of the same groups of mice by PCR. The Y-axis indicates the median HBV DNA level (copies/mL) for each group of animals and the X-axis the time (number of days post-AAV2/8-HBV injection). […]\n(§2) The HBV persistent mice used in the study were described by Dion et al. (2013, J Virol, 87(10):5554-63). […] This allows the analysis of HBV-specific viral parameters (HBsAg, HBeAg, HBcAg and viremia) as well as immunological read-outs (ICS, ELISpot or humoral immune responses). […]\nHBsAg levels in mouse serum were assessed using a commercial ELISA kit (Monolisa HBsAg Ultra, Bio-Rad, France) according to the manufacturer's protocol, except that a standard curve was established, to render the test quantitative. […]"}, "[2]": {"test_system": "melanoma", "settings": "melanoma bearing mice; cited from earlier work"}, "[3]": {"test_system": "HBV DNA (AAV2/8-HBV)", "test": "Serum HBV DNA (viral load) by qPCR in HBV-persistent mice", "assay_type": "in vivo, C57BL/6J mice", "settings": "sildenafil only 5, 20 or 80 mg/kg/day (groups b to d), over the experiment", "protocol": "as §1, with “PCR.” for “PCR. The Y-axis indicates the median HBV DNA level (copies/mL) for each group of animals and the X-axis the time (number of days post-AAV2/8-HBV injection).”\nas §2\nHBV DNA copy number was determined in samples using the PrimerDesign™ Genesig Advanced Kit for Hepatitis B (ref. Path-HBV, PrimerDesign) and the 7500 real time system from Applied Biosystems. Data were analyzed using the 7500 System SDS software v2.0.6. […]\nThe Quantitect Multiplex PCR kit (ref. 204545, Qiagen) was used to carry out the qPCR reactions. […]\nThe limit of quantification (LOQ) was 100 DNA copies per reaction and the limit of detection (LOD) was 10 copies per reaction. […]"}},
  "data": [
    {"smiles": "CCCc1nn(C)c2c(=O)nc(-c3cc(S(=O)(=O)N4CCN(C)CC4)ccc3OCC)[nH]c12", "note": "[sildenafil, 1-[[3-(4,7-dihydro-1-methyl-7-oxo-3-propyl-1H-pyrazolo[4,3-d]pyrimidin-5-yl)-4-ethoxyphenyl]sulfonyl]-4-methylpiperazine]", "values": [
      {"measurement": "HBsAg median level, course", "setting": "[1]", "result": "no significant HBsAg decrease"},
      {"measurement": "concentration of inflammatory mediators (IL-1β, IL-6, VEGF, GM-CSF, MCP-1) in melanoma lesions", "setting": "[2]", "result": "significantly diminished"},
      {"measurement": "tumor progression", "setting": "[2]", "result": "delay tumor progression"},
      {"measurement": "median level of viral DNA", "setting": "[3]", "result": "around 10^5 copies/mL serum"}
    ]}
  ]
}
